Reference: patent US10653672B2, “Myogenesis promotor, muscle atrophy inhibitor, medical composition and TAZ activator” (National University Corporation Tokyo Medical and Dental …, priority 2014, dated 2020)
“And” between values parts separate entries of the source, which are not always exact repeats. Identical values can stand only once.

Experiments:
[1] = tested on: association of TEAD with CTGF; experiment: Chromatin immunoprecipitation, TEAD on CTGF promoter; type: cell-based, mouse; settings: C2C12 cells; 10 μM; differentiation condition 24 hours; protein G sepharose without antibody; listed as IBS008738
Method: (1) Chromatin immunoprecipitation of MyoD, TEAD and Pax3 was performed on C2C12 cells that were cultured under differentiation condition for 24 hours in a culture medium added with IBS008738 or DMSO at a concentration of 10 μM. Myogenin, connective tissue growth factor (CTGF) and MyfS were detected by PCR, respectively. The immunoprecipitation with protein G sepharose was used as a control (Mock ChIP). […] The line and the error bar in the figure indicate the average value and the standard error, *p<0.05, ***p<0.001, ns refers to not significant.
The Chromatin immunoprecipitation was performed according to the following process. C2C12 cells were cultured to confluence, and then treated with IBS008738 or DMSO at a concentration of 10 μM in a differentiation medium for 24 hours. The cells were crosslinked in 1.42% (v/v) formaldehyde for 15 minutes, and the reaction was quenched by treating with 125 mM glycine for 5 minutes. […] Shearing was analyzed by agarose gel electrophoresis. […] The immunoprecipitated DNA fragments were isolated using Chelex-100 resin and diluted by 1:2.5 for quantitative PCR analysis. Input normalized relative abundance was determined.

Balb/c ByJ mice [2] = experiment: Suppression of dexamethasone-induced muscle atrophy; type: in vivo, mouse
Method: (1) A 25 mg/mL dexamethasone stock solution in DMSO was prepared. Three Balb/c ByJ mice (6 week, female) were intraperitoneally injected with 20 μL of the dexamethasone stock solution, each day for a week. As a control group, three other individuals were injected with 20 μL of DMSO. On day 9, 11 and 13, each group of the mice was injected with a solution prepared by dissolving 0.3 μL of 10 mM IBS008738 stock solution in 100 μL PBS, on one hindlimb muscle, and with 100 μL PBS on the other hindlimb muscle. The mice were sacrificed at day 14, and the muscle tissues were fixed and stained with hematoxylin and eosin (see FIG. 8D). It was observed that the muscle fibers of the mice administered with dexamethasone were shrinked.
(2) The cross section of the muscle fibers of the individual intraperitoneally injected with dexamethasone was stained with an anti-laminin antibody and observed. […] The cross-section area of muscle fibers (500 per individual) of the three mice was measured. As a result, the area of the individual injected with IBS008738 was greater than the area of the individual injected with DMSO (see FIG. 9F). The cross-section area of muscle fibers was analyzed with Image J software.

Balb/c ByJ mice [3] = experiment: Recovery of cardiotoxin-induced muscle damage; type: in vivo, mouse; settings: intraperitoneal injection of 100 mM stock on days 2, 4 and 6 after cardiotoxin; day 7
Method: Experiments were conducted with mice according to procedures approved by the Institutional Animal Case and Use Committee (see FIG. 9A to 9F). For the experiments, Balb/c ByJ mice (6 weeks, female) were used. The bar in the figures is 50 μm. The line and the error bar indicate the average value and the standard error, *p<0.05, i.e refers to intramuscular injection, and i.p refers to intraperitoneal injection.
(1) Cardiotoxin was diluted to 10 μM with phosphate buffered saline (PBS). The cardiotoxin solution (100 μl) was added with 0.3 μL of DMSO, or 0.3 μL of 10 mM IBS008738 stock solution in DMSO, respectively, and the solution was injected to the anterior tibial muscles on the right and the left, respectively. Three mice were used for one experiment, and the experiment was performed twice. The mice were sacrificed at day 5. […]
(3) Observation of muscle tissues was performed by fixing the anterior tibial muscle with 4% formalin and embedding the same in paraffin or O.C.T. compound, and staining muscle sections of 5 μm with haematoxylin and eosin. Further, Pax 7 was detected with anti-Pax 7 antibody and visualized with 3,3′-diaminobenzidine. […] The number of the Pax7-positive cells and the number of the centrally nucleated muscle fibers were counted at 6 fields at 20-fold magnification. […]

## Cc1ccc(-n2cnc(/N=C/N3CCOCC3)c2C(=O)c2ccccc2)cc1 [exemplary compound 1]
[1]
  Input %, CTGF-p, Mock ChIP: 0.06% and 0.04%
Balb/c ByJ mice [2]; dexamethasone mice, 500 fibers per individual, three mice
  cross-section area of muscle fibers compared with DMSO: greater
Balb/c ByJ mice [2]; dexamethasone mice, cross section stained with anti-laminin antibody
  shrinkage of muscle fibers compared with DMSO: more suppressed
Balb/c ByJ mice [2]; mice intraperitoneally injected with DMSO (no dexamethasone), IBS008738 into hindlimb muscle on day 9, 11 and 13, hematoxylin and eosin
  effect on muscle fibers: No significant effect
Balb/c ByJ mice [2]; mice intraperitoneally injected with dexamethasone, IBS008738 into hindlimb muscle on day 9, 11 and 13, hematoxylin and eosin, day 14
  shrinkage of muscle fibers: partly suppressed
Balb/c ByJ mice [3]
  number of the Pax7-positive cells compared with DMSO: greater
  number of the centrally nucleated muscle fibers compared with DMSO: greater
